Patent publication US10358436B2, “Kinase inhibitors and method of treating cancer” (University Health Network, priority 2010, dated 2019)
Where a name gives a salt, the structure may show the parent alone.

Target: Aurora A (Homo sapiens (Human), UniProt O14965)
Experiment: Aurora A inhibition assay (Z-Lyte)
Assay type: biochemical

Chain of Aurora A (O14965 whole entry): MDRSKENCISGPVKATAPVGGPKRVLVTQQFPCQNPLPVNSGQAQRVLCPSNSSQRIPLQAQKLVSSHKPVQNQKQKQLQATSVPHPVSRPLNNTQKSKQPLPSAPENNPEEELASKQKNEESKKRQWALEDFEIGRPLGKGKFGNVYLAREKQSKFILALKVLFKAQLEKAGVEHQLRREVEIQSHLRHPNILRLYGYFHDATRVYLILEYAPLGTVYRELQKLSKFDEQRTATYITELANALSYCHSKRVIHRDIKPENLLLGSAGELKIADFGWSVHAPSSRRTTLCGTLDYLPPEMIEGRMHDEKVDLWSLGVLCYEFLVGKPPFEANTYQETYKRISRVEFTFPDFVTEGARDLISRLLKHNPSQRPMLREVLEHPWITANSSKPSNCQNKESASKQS

Row | inhibition at 1 µM | Structure (SMILES)
1 | < 50% | COc1ccc2c(c1)[C@]1(C[C@H]1c1ccc3c(C#Cc4cccnc4)n[nH]c3c1)C(=O)N2 (relative stereo) [Example A52, (1R*,2S*)- and (1R*,2S*)-5′-methoxy-2-(3-(pyridin-3-ylethynyl)-1H-indazol-6-yl)spiro[cyclopropane-1,3′-indolin]-2′-one]
2 | > 50% | O=C1Nc2ccccc2[C@]12C[C@H]2c1ccc2c(/C=C/c3ccccn3)n[nH]c2c1 (relative stereo) [Example A53, (1R*,2S*)-2-(3-((E)-2-(pyridin-2-yl)vinyl)-1H-indazol-6-yl)spiro[cyclopropane-1,3′-indolin]-2′-one]
3 | > 50% | N#Cc1ccc(/C=C/c2n[nH]c3cc([C@@H]4C[C@@]45C(=O)Nc4ccccc45)ccc23)cc1 (relative stereo) [Example A54, 4-((E)-2-(6-((1R*,2S*)-2′-oxospiro[cyclopropane-1,3′-indoline]-2-yl)-1H-indazol-3-yl)vinyl)benzonitrile]
4 | > 50% | O=C1Nc2ccccc2[C@]12C[C@H]2c1ccc2c(/C=C/c3ccc(CN4CCCCC4)nc3)n[nH]c2c1 (relative stereo) [Example A63, (1R*,2S*)-(E)-2-(3-((E)-2-(6-(piperidin-1-ylmethyl)pyridin-3-yl)vinyl)-1H-indazol-6-yl)spiro[cyclopropane-1,3′-indolin]-2′-one 2,2,2-trifluoroacetate salt]
5 | > 50% | CN1C(=O)[C@@]2(C[C@H]2c2ccc3c(/C=C/c4ccc(CN5CCOCC5)cc4)n[nH]c3c2)c2ccccc21 (relative stereo) [Example A87, (1R*,2S*)-(E)-1′-methyl-2-(3-(4-(morpholinomethyl)styryl)-1H-indazol-6-yl)spiro[cyclopropane-1,3′-indolin]-2′-one 2,2,2-trifluoroacetate]
6 | < 50% | COc1ccc2c(c1)[C@]1(C[C@H]1c1ccc3c(-c4ccc(N5CCN(C(C)C)CC5)cc4)n[nH]c3c1)C(=O)N2 (relative stereo) [Example A96, (1R*,2S*)-2-(3-(4-(4-isopropylpiperazin-1-yl)phenyl)-1H-indazol-6-yl)-5′-methoxyspiro[cyclopropane-1,3′-indolin]-2′-one]
7 | < 50% | COc1ccc2c(c1)[C@]1(C[C@H]1c1ccc3c(-c4ccc(N5CCC(N(C)C)CC5)cc4)n[nH]c3c1)C(=O)N2 (relative stereo) [Example A119, (1R*,2S*)-2-(3-(4-(4-(dimethylamino)piperidin-1-yl)phenyl)-1H-indazol-6-yl)-5′-methoxyspiro[cyclopropane-1,3′-indolin]-2′-one 2,2,2-trifluoroacetate]
8 | < 50% | NS(=O)(=O)c1cccc(-c2n[nH]c3cc([C@@H]4C[C@@]45C(=O)Nc4ccccc45)ccc23)c1 (relative stereo) [Example A130, 3-(6-((1R*,2S*)-2′-oxospiro[cyclopropane-1,3′-indoline]-2-yl)-1H-indazol-3-yl)benzenesulfonamide]
9 | > 50% | COc1ccc2c(c1)[C@]1(C[C@H]1c1ccc3c(/C=C/c4cccc(CN5CCOCC5)c4)n[nH]c3c1)C(=O)N2 (relative stereo) [Example A133, (1R*,2S*)-5′-methoxy-2-(3-(3-(morpholinomethyl)styryl)-1H-indazol-6-yl)spiro[cyclopropane-1,3′-indolin]-2′-one 2,2,2-trifluoroacetate]
10 | > 50% | COc1ccc2c(c1)[C@]1(C[C@H]1c1ccc3c(/C=C/c4cccc(CN(C)C)c4)n[nH]c3c1)C(=O)N2 (relative stereo) [Example A135, (1R*,2S*)-2-(3-(3-((dimethylamino)methyl)styryl)-1H-indazol-6-yl)-5′-methoxyspiro[cyclopropane-1,3′-indolin]-2′-one 2,2,2-trifluoroacetate]
11 | < 50% | COc1ccc2c(c1)[C@]1(C[C@H]1c1ccc3c(-c4cccc(CN5CCOCC5)c4)n[nH]c3c1)C(=O)N2 (relative stereo) [Example A136, (1R*,2S*)-5′-methoxy-2-(3-(3-(morpholinomethyl)phenyl)-1H-indazol-6-yl)spiro[cyclopropane-1,3′-indolin]-2′-one 2,2,2-trifluoroacetate]
12 | < 50% | COc1ccc2c(c1)[C@]1(C[C@H]1c1ccc3c(C#Cc4ccc(C=O)cc4)n[nH]c3c1)C(=O)N2 (relative stereo) [Example A137, 4-((6-((1R*,2S*)-5′-methoxy-2′-oxospiro[cyclopropane-1,3′-indoline]-2-yl)-1H-indazol-3-yl)ethynyl)benzaldehyde]
13 | < 50% | COc1ccc2c(c1)[C@]1(C[C@H]1c1ccc3c(-c4ccc(CN5CCOCC5)cc4)n[nH]c3c1)C(=O)N2 (relative stereo) [Example A139, (1R*,2S*)-5′-methoxy-2-(3-(4-(morpholinomethyl)phenyl)-1H-indazol-6-yl)spiro[cyclopropane-1,3′-indolin]-2′-one 2,2,2-trifluoroacetate]
14 | < 50% | COc1ccc2c(c1)[C@]1(C[C@H]1c1ccc3c(-c4ccc(CN5CCN(C)CC5)cc4)n[nH]c3c1)C(=O)N2 (relative stereo) [Example A140, (1R*,2S*)-5′-methoxy-2-(3-(4-((4-methylpiperazin-1-yl)methyl)phenyl)-1H-indazol-6-yl)spiro[cyclopropane-1,3′-indolin]-2′-one bis-2,2,2-trifluoroacetate]
15 | < 50% | CCc1ccc2c(c1)[C@]1(C[C@H]1c1ccc3c(-c4cccc(CN5CCOCC5)c4)n[nH]c3c1)C(=O)N2 (relative stereo) [Example A141, (1R*,2S*)-5′-ethyl-2-(3-(3-(morpholinomethyl)phenyl)-1H-indazol-6-yl)spiro[cyclopropane-1,3′-indolin]-2′-one 2,2,2-trifluoroacetate]
16 | < 50% | COc1ccc2c(c1)[C@]1(C[C@H]1c1ccc3c(C#Cc4ccc(CN5CCN(C)CC5)cc4)n[nH]c3c1)C(=O)N2 (relative stereo) [Example A145, (1R*,2S*)-5′-methoxy-2-(3-((4-((4-methylpiperazin-1-yl)methyl)phenyl)ethynyl)-1H-indazol-6-yl)spiro[cyclopropane-1,3′-indolin]-2′-one bis(2,2,2-trifluoroacetate)]
17 | < 50% | CN1CCN(Cc2ccc(-c3n[nH]c4cc([C@@H]5C[C@@]56C(=O)Nc5ccccc56)ccc34)cc2)CC1 (relative stereo) [Example A155, (1R*,2S*)-2-(3-(4-((4-methylpiperazin-1-yl)methyl)phenyl)-1H-indazol-6-yl)spiro[cyclopropane-1,3′-indolin]-2′-one bis-2,2,2-trifluoroacetate]
18 | < 50% | CN1CCN(C(=O)c2ccc(-c3n[nH]c4cc([C@@H]5C[C@@]56C(=O)Nc5ccccc56)ccc34)cc2)CC1 (relative stereo) [Example A156, (1R*,2S*)-2-(3-(4-(4-methylpiperazine-1-carbonyl)phenyl)-1H-indazol-6-yl)spiro[cyclopropane-1,3′-indolin]-2′-one 2,2,2-trifluoroacetate]
19 | > 50% | Cc1ccc(/C=C/c2n[nH]c3cc([C@@H]4C[C@@]45C(=O)Nc4ccccc45)ccc23)c(C)n1 (relative stereo) [Example A158, (1R*,2S*)-2-(3-((E)-2-(2,6-dimethylpyridin-3-yl)vinyl)-1H-indazol-6-yl)spiro[cyclopropane-1,3′-indolin]-2′-one]
20 | < 50% | COc1ccc2c(c1)[C@]1(C[C@H]1c1ccc3c(-c4ccc(CCN5CCOCC5)cc4)n[nH]c3c1)C(=O)N2 (relative stereo) [Example A159, (1R*,2S*)-5′-methoxy-2-(3-(4-(2-morpholinoethyl)phenyl)-1H-indazol-6-yl)spiro[cyclopropane-1,3′-indolin]-2′-one 2,2,2-trifluoroacetate]
21 | > 50% | CN(C)Cc1ccc(/C=C/c2n[nH]c3cc([C@@H]4C[C@@]45C(=O)N(CC(N)=O)c4ccccc45)ccc23)cc1 (relative stereo) [Example A160, 2-((1R*,2S*)-(E)-2-(3-(4-((dimethylamino)methyl)styryl)-1H-indazol-6-yl)-2′-oxospiro[cyclopropane-1,3′-indoline]-1′-yl)acetamide 2,2,2-trifluoroacetate]

Row | Structure (SMILES) | inhibition at 1 µM
22 | COc1ccc2c(c1)[C@]1(C[C@H]1c1ccc3c(-c4ccc(N5CCNCC5)cc4)n[nH]c3c1)C(=O)N2 (relative stereo) [Example A48, (1R*,2S*)-5′-methoxy-2-(3-(4-(piperazin-1-yl)phenyl)-1H-indazol-6-yl)spiro[cyclopropane-1,3′-indolin]-2′-one 2,2,2-trifluoroacetate] | < 50%
23 | O=C1Nc2ccccc2[C@]12C[C@H]2c1ccc2c(/C=C/c3ccc(CN4CCCCC4)cc3)n[nH]c2c1 (relative stereo) [Example A57, (1R*,2S*)-(E)-2-(3-(4-(piperidin-1-ylmethyl)styryl)-1H-indazol-6-yl)spiro[cyclopropane-1,3′-indolin]-2′-one 2,2,2-trifluoroacetate] | > 50%
24 | O=C1Nc2ccccc2[C@]12C[C@H]2c1ccc2c(/C=C/c3ccc(CN4CCCC4)cc3)n[nH]c2c1 (relative stereo) [Example A60, (1R*,2S*)-(E)-2-(3-(4-(pyrrolidin-1-ylmethyl)styryl)-1H-indazol-6-yl)spiro[cyclopropane-1,3′-indolin]-2′-one 2,2,2-trifluoroacetate] | > 50%
25 | COc1ccc2c(c1)[C@]1(C[C@H]1c1ccc3c(-c4ccc(N5CCC(O)CC5)nc4)n[nH]c3c1)C(=O)N2 (relative stereo) [Example A117, (1R*,2S*)-2-(3-(6-(4-hydroxypiperidin-1-yl)pyridin-3-yl)-1H-indazol-6-yl)-S-methoxyspiro[cyclopropane-1,3′-indolin]-2′-one 2,2,2-trifluoroacetate] | < 50%
26 | COc1ccc2c(c1)[C@]1(C[C@H]1c1ccc3c(-c4ccc(C5CCNCC5)cc4)n[nH]c3c1)C(=O)N2 (relative stereo) [Example A122, (1R*,2S*)-5′-methoxy-2-(3-(4-(piperidin-4-yl)phenyl)-1H-indazol-6-yl)spiro[cyclopropane-1,3′-indolin]-2′-one 2,2,2-trifluoroacetate] | < 50%
